Two molecules from publication PMC7177633, “Effective Cellular Transport of Ortho-Halogenated Sulfonamide Derivatives of Metformin Is Related to Improved Antiproliferative Activity and Apoptosis Induction in MCF-7 Cells” (International Journal of Molecular Sciences, 2020) can be followed below.

One experiment relates to MCF-7 cells. In words: Intracellular GSH and GSSG, MCF-7. Type of experiment: cell-based, human. The conditions noted are these: MCF-7, 24 h, reference agents: Ascorbic acid 200 µM, AAPH 10 mM. On the procedure:
(§1) The quantitative determination of glutathione and glutathione disulfide was performed using the enzymatic recycling method according to the protocol of Rahman. The cells were seeded at a density of 2 × 10^5 per well in a 6-well plate and cultured for 48 h. Then, the cells were treated with tested compounds 1, 4 and 7 at their respective ¼ and ½ IC50 values for MCF-7 and MDA-MB-231 cells. Additionally, controls with pure medium, AAPH (2,2′-Azobis(2-methylpropionamidine) dihydro-chloride, Sigma Aldrich, St. Louis, MO, USA) and ascorbic acid (Polish Chemical Reagents, Poland) were performed. The cells were incubated with compounds for another 24 h, then washed twice with 2 mL of cold, Ca^2+-/Mg^2+-free PBS (Biomed Lublin, Lublin, Poland). The cells were harvested using 1-mL accutase (Sigma Aldrich, St. Louis, MO, USA), and the wells were washed with 1 mL of cold growth medium. The cells were transferred to prechilled 2.0-mL Eppendorf tubes and centrifuged at 1000× g for 5 min at 4 °C. The supernatant was discarded, the pellets were resuspended in 1 mL of cold PBS, the number of cells was determined in each sample and the cellular suspension was centrifuged again. PBS was discarded, and the pellets were stored covered with 30-µL PBS at –70 °C. The following day, the cells were suspended in 0.5 mL of ice-cold extraction buffer (0.1% Triton-X (Polish Chemical Reagents, Gliwice, Poland) and 0.6% sulfosalicylic acid (Sigma Aldrich) in a potassium phosphate buffer with EDTA (Sigma Aldrich)) and sonicated in icy water for 3 min with vortexing every 30 s. The cells were frozen once again at −80 °C, defrosted on ice and frozen once again. Following the second freeze–thaw cycle, the cells were centrifuged at 1500× g for 5 min at 4 °C, and then, immediately, the supernatant was transferred to prechilled Eppendorf tubes. The samples were divided into two parts: one was used to measure GSH, and the other one was derivatized by an addition of 4 µL of 2-vinylpyridine (diluted 1:10 with phosphate buffer) (Sigma Aldrich, St. Louis, MO, USA) to determine the GSSG content.
(§2) GSH measurements included an addition of 20 µL of the tested sample, blank or GSH standard, 120 µL of the mixture of an equal volume of DTNB solution (2 mg dissolved in 3 mL of phosphate buffer, Sigma Aldrich) and glutathione reductase (10 U in 3 mL of phosphate buffer, Sigma Aldrich, St. Louis, MO, USA) and 30 s of incubation to allow the conversion of GSSG to GSH. The final step included the addition of 60 µL of β-NADPH (2 mg dissolved in 3 mL of phosphate buffer, Sigma Aldrich). The absorbance was read immediately at 415 nm in a microplate reader (Bio-Rad), and the measurements were taken every 30 s for 2 min (6 readings in total). The amount of GSH was calculated on the basis of the calibration curve prepared using GSH (Sigma Aldrich, St. Louis, MO, USA) at concentrations ranging from 0.040 to 2.6 nmol/mL.
(§3) The quantification of GSSG in the test samples was performed according to the same procedure as GSH. The samples treated with 2-VP were incubated for one hour at room temperature, and then, 20 µL of the tested sample was analyzed using the same reagents which were applied in the GSH measurements. The amount of GSSG was calculated on the basis of the calibration curve, prepared using GSSG (Sigma Aldrich) at concentrations of 0.040–2.6 nmol/mL. The results are presented as mean ± SD, n = 6–8 and expressed as nmol per […].

The next experiment relates to MDA-MB-231 cells. The experiment is described as follows: Intracellular GSH and GSSG, MDA-MB-231. Type of experiment: cell-based, human. Particulars: MDA-MB-231, 24 h, reference agents: Ascorbic acid 200 µM, AAPH 10 mM. On the procedure:
as §1, §2, §3

As for `CC(C)(N=NC(C)(C)C(=N)N)C(=N)N.Cl.Cl` [AAPH, 2,2′-Azobis(2-methylpropionamidine) dihydrochloride, reference compound], in the experiment with MCF-7 cells, the GSH was 117.6 ± 7.8 nmol/1 mln Cells, the “GSH:GSSG Ratio” value came out at 8.9 and the GSSG turned out to be 12.8 ± 0.5 nmol/1 mln Cells. In the experiment on MDA-MB-231 cells, the GSH amounted to 102.7 ± 3.2 nmol/1 mln Cells, the “GSH:GSSG Ratio” value is on record as 6.9 and the GSSG is on record as 14.3 ± 1.9 nmol/1 mln Cells.

`O=C1O[C@H]([C@@H](O)CO)C(O)=C1O` [Ascorbic acid, reference compound]: in the experiment on MCF-7 cells, the GSH was determined as 153.1 ± 5.4 nmol/1 mln Cells, the “GSH:GSSG Ratio” value was 25.3 and the GSSG was 6.0 ± 0.4 nmol/1 mln Cells. Also, in the experiment on MDA-MB-231 cells, the GSH is 249.6 ± 20.8 nmol/1 mln Cells, the “GSH:GSSG Ratio” value is 13.9 and the GSSG is reported as 17.9 ± 1.5 nmol/1 mln Cells.
